Broadly, the pIC50 is −log10 of the IC50, conventionally taken in molar units. A lower pIC50 goes with a large IC50.

Structures are written as SMILES. pIC50: −log10 of the molar value.

This assay has as its system P. falciparum 3D7 growth, pLDH absorbance. Description: blood-stage malaria parasite growth potency – strain 3D7, dose response (AID 2305).
As to `COc1ccc(C(=O)NC(c2ccc(Cl)cc2Cl)c2cc(Cl)c3cccnc3c2O)cc1` (stereo not drawn), the pIC50 was 6.30.

The compound `CN(C)CCCOc1ccc(CN2CC[C@H](NC(=O)c3ccc(Cl)c(Cl)c3)C2)c2ccccc12` showed a pIC50 of 6.06.

As for `COc1ccc2nccc([C@H](O)CN3CCC(NCc4ccc5c(c4C)OCCO5)CC3)c2n1`, the negative-log IC50 (pIC50) was 6.05.

In turn, `CC(C)(CNCc1ccc(F)c(F)c1)c1nc(-c2ccc(Cl)c(O)c2)c(-c2ccncc2)[nH]1` had a pIC50 of 6.18.

`Nc1ccc2c(N)c3ccccc3nc2c1` showed a pIC50 of 6.09.

For `COCCCNc1sc(S(=O)(=O)c2ccccc2)nc1S(=O)(=O)c1ccc(Cl)cc1`, the pIC50 is 6.06.

In turn, `COc1ccc2nccc([C@H](O)CN3CCC(NCc4nc5c(F)cccc5[nH]4)CC3)c2c1` gave a pIC50 of 6.15.

Regarding `Cn1c(NC(=O)CCCCCNC(=O)c2ccc(O)c(-c3ccc(Cl)c(Cl)c3)c2)nc2ccccc21`, the pIC50 was 6.14.

`CCOc1c(Br)cc(Br)cc1CNCCCCNc1nc2ccccc2[nH]1` showed a pIC50 of 6.41.

`CN(CCN1CCC(c2c[nH]c3ccccc23)CC1)c1ccc(-c2nc3cc(Cl)c(Cl)cc3[nH]2)cc1` showed a pIC50 of 6.92.

`CCN1CCN(c2ccc(NC(=O)c3cc4c(C)nn(-c5ccccc5)c4s3)cc2C)CC1` had a pIC50 of 6.12.

Turning to `O=c1cc(NCCCNCc2cccc(Oc3ccccc3)c2)[nH]c2ccccc12`, the pIC50 was 6.02.

`OCC1CCN(Cc2ccc(-c3ccc(-c4nc5ccc(F)cc5[nH]4)cc3)cc2)CC1` showed a pIC50 of 6.08.

Compound `CC(C)NC(C)(C)CN(Cc1ccc(-c2ccc(C(F)(F)F)cc2)cc1)C(=O)Cn1c(CCc2cccc(F)c2F)nc(=O)c2ccccc21` gave a pIC50 of 6.04.

On to `CN(CCCCNC(=O)/C=C/c1ccccc1)C1CC2(CCN(C(=O)OC(C)(C)C)CC2)c2ccccc21` (stereo not drawn), for which the pIC50 was 5.94.

As to `Nc1nc2c(ncn2OC[C@H](CO)OCP(=O)(O)O)c(=O)[nH]1`, the pIC50 was 6.47.

Compound `COc1ccc(-c2csc3ncnc(Cl)c23)cc1OC` gave a pIC50 of 6.11.

Regarding `COc1cc(Nc2nc(N)n(C(=O)c3ccc4c(c3)OCO4)n2)cc(OC)c1OC`, the pIC50 is 5.95.

The compound `Cc1cccc2[nH]c(-c3ccc(-c4ccc(CN5CCCCC5CO)cc4)cc3)nc12` (stereo not drawn) showed a pIC50 of 6.09.

In turn, `CN(c1ccc(NC(=O)Nc2cc(C(F)(F)F)ccc2F)cc1)c1ccnc(NCCN2CCOCC2)n1` had a pIC50 of 6.29.

As to `COc1cccc(CNC(=O)c2ccnc(-c3cccc(CN(C)C4CCN(C)CC4)c3)c2)c1`, the pIC50 is 6.08.

Turning to `COCCNCc1cccc(-c2ccc(CN(C(=O)Nc3ccccc3)C3CCN(Cc4ccccc4)CC3)cc2)c1`, the pIC50 was 6.11.

`COc1ccc2c(c1)[nH]c1c(C=Cc3ccccc3)nccc12` showed a pIC50 of 6.42.

`COc1ccc2nccc([C@@H](O)CN3CCC(NCc4cc5c(Cl)cc(Cl)cc5[nH]4)CC3)c2c1` had a pIC50 of 7.22.

The compound `COc1ccc(-n2ccnc2)cc1CNC1CCN(CC2Cn3c(=O)ccc4ccc(F)c2c43)CC1` (stereo not drawn) gave a pIC50 of 6.03.

Regarding `NC1=NC(c2ccccc2)(c2ccccc2)C(=O)N1Cc1ccc(-c2cccnc2)cc1`, the pIC50 was 6.15.

The compound `COc1ccc(-n2ccnc2SCC(=O)Nc2cc(C(F)(F)F)ccc2Cl)c(OC)c1` showed a pIC50 of 7.40.

With `Cc1cc(NC(=O)c2ccco2)ccc1OC1CCN(Cc2ccc(C#N)cc2)CC1`, the pIC50 was 6.30.

In the case of `CN1CCCN(Cc2cccc(-c3cccc(NS(=O)(=O)c4cccc5cccnc45)c3)c2)CC1`, the pIC50 was 6.12.

The compound `COC(=O)c1ccc(CC(C)NCC(O)c2cccc(I)c2)cc1` (stereo not drawn) showed a negative-log IC50 (pIC50) of 5.88.

The compound `O=C(NC1CCC(N2CCC(c3nc4ccccc4s3)CC2)CC1)c1cc2ccccc2[nH]1` (stereo not drawn) gave a pIC50 of 6.03.

With `COc1ccc2ncc(F)c(CCN3C[C@H](CNCc4ccc(F)cc4)[C@H](O)C3)c2n1`, the pIC50 is 6.09.

As to `CC1(C)N=C(N)N=C(N)N1c1cc(Cl)c(Cl)c(Cl)c1`, the pIC50 was 8.00.

`NC1CCN(Cc2ccc(-c3ccc(-c4nc5ccc(F)cc5[nH]4)s3)cc2)C1` (stereo not drawn): the pIC50 is 6.19.

`CC(=O)Nc1nc(C(=O)Nc2cccc(-c3cccc(-c4nc5ccc(F)cc5[nH]4)c3)c2)cs1` gave a pIC50 of 7.05.

`COc1ccc2ncc(F)c([C@H](O)CN3CCC(NCc4ccc5c(c4)NC(=O)CO5)CC3)c2c1` gave a negative-log IC50 (pIC50) of 6.77.

For the compound `CCOc1cc(C)ccc1NC1CCN(CCCCNC(=O)c2ccc(NC(=O)c3ccc(Cl)cc3)cc2)CC1`, the pIC50 is 6.15.

With `c1cc2nc(CCCCCc3nc4ccc(C5=N[C@@H]6CCCC[C@@H]6N5)cc4[nH]3)[nH]c2cc1C1=N[C@@H]2CCCC[C@@H]2N1`, the pIC50 is 6.70.

With `C=CCn1c(Sc2ccc(C#N)c([N+](=O)[O-])c2)nnc1-c1ccc(OC)cc1`, the pIC50 is 6.10.

The compound `O=C(Cc1ccc([N+](=O)[O-])cc1)N1CCc2cc3nccc(N4CCN5CCC[C@H]5C4)c3cc21` showed a pIC50 of 6.08.

Regarding `CC1(C)N=C(N)N=C(N)N1c1cc(Cl)c(Cl)cc1Cl`, the pIC50 is 6.74.

`c1cncc(-c2cccc(CNc3nccc(Nc4ccc(OCCN5CCOCC5)cc4)n3)c2)c1` had a pIC50 of 5.97.

`Clc1ccc(C=NNc2ccnc3ccccc23)cc1`: the pIC50 was 6.14.

Consider `CC(C)CCNCc1ccc(OCc2ccccc2COc2ccc(CNCCC(C)C)cc2I)c(I)c1`, for which the pIC50 was 6.37.

In turn, `Cc1ccccc1C1CCN(C2CCC(NC(=O)/C=C/c3ccc(OC(F)(F)F)cc3)CC2)CC1` (stereo not drawn) showed a negative logarithm of the IC50 (pIC50) of 6.07.

In turn, `COc1cccc(-c2cnc(N)c(-c3nc4ccc(F)cc4[nH]3)c2)c1` had a pIC50 of 6.07.

`CC(C)(C)NCCN(Cc1ccc(-c2ccc(C(F)(F)F)cc2)cc1)C(=O)Cn1c(CCc2cccc(F)c2F)nc(=O)c2c1CCC2` gave a pIC50 of 6.02.

`Cc1cccc2[nH]cc(C3CCN(CC4CCC(NC(=O)/C=C/c5ccc(Cl)c(Cl)c5)CC4)CC3)c12` (stereo not drawn) gave a pIC50 of 6.80.

`COc1cc(NC(=O)C(c2ccc(Cl)cc2)C(C)C)cc(OC)c1` (stereo not drawn): the pIC50 is 6.14.

In turn, `O=S(=O)(NCCN1CCCC1)c1ccc(-c2cccc(CNC3Cc4ccccc4C3)c2)cc1F` had a pIC50 of 5.99.

`CCOc1cc2ncnc(Nc3ccc(OCc4c(Cl)cccc4Cl)c(OC)c3)c2cc1OCC` showed a negative-log IC50 (pIC50) of 5.98.

`CCCCCc1cnc2nc(N)nc(N)c2c1C`: the pIC50 is 6.68.

`CC(C)(C)Oc1ccc(C[C@@H]2NC3(C(=O)N(Cc4ccc(Cl)c(Cl)c4)c4ccccc43)C3C(=O)N(c4ccc(Br)cc4)C(=O)C32)cc1` (stereo partly drawn) showed a pIC50 of 5.98.

Regarding `OCc1ccc(-c2cncc(Nc3ccc(F)c(Cl)c3)c2)cc1`, the pIC50 was 7.05.

Compound `CCOc1cc(N)c2nc3ccc([N+](=O)[O-])cc3cc2c1` gave a pIC50 of 6.82.

Compound `Cc1cc(NC(=O)[C@H](CC(C)C)Nc2ccc(C#N)c3ccccc23)ccc1F` had a pIC50 of 6.11.

Turning to `Cc1cc(NN=Cc2ccccc2F)c2ccccc2n1`, the pIC50 was 6.04.

The compound `CCCCc1cc(NCc2ccncc2)nc(Nc2ccc(C)cc2)n1` gave a pIC50 of 6.10.

`Cc1cc(=O)c(-c2ccc(Oc3ccc(C(F)(F)F)cc3)cc2)c(C)n1O` showed a pIC50 of 6.22.

In the case of `COc1ccc2nc(Nc3nc4ccncc4[nH]3)sc2c1`, the negative logarithm of the IC50 (pIC50) is 5.95.

`N#Cc1ccc(NC(=NCc2cccnc2)Nc2ccc(-c3ccccc3)cc2)c(O)c1` gave a pIC50 of 6.09.

`CCCCCC(C)N=C(Nc1ccc(C#N)cc1O)Nc1cccc(Cl)c1Cl` (stereo not drawn) showed a negative-log IC50 (pIC50) of 6.10.

The compound `Cc1cc(OCCCn2ccnc2)ccc1-c1csc(NC(N)=NCc2ccccc2)n1` gave a pIC50 of 6.06.

Take `N#Cc1ccc2c(c1)CCN(CCC1CCC(NC(=O)c3cc4ccccc4[nH]3)CC1)CC2` (stereo not drawn): the pIC50 is 6.00.

On to `c1cc(CNCCN2CCNCC2)cc(-c2cccc(-c3nc4ccccc4[nH]3)c2)c1`, for which the pIC50 was 6.02.

The compound `COc1cc2c(OC)cccc2cc1CNCCCCCCNCc1cc2cccc(OC)c2cc1OC` gave a pIC50 of 6.09.

`COc1ccc(NC(=O)[C@H](Cc2ccccc2)Nc2cc(C)nc(NCCc3ccccn3)n2)cc1`: the negative logarithm of the IC50 (pIC50) is 6.08.

As to `Clc1ccc(Nc2nc3ccc(Cl)cc3nc2Nc2ccc(Cl)cc2)cc1`, the pIC50 is 6.89.

`O=c1[nH]c(NCCCNCc2cc3c(Cl)cc(Cl)cc3[nH]2)nc2ccsc12`: the negative-log IC50 (pIC50) is 5.95.

In turn, `O=C(Nc1ccc(C(=O)OCC2CCCCC2)cc1)N[C@@H](Cc1ccc(O)cc1)C(=O)NC1CCN(Cc2ccc(O)cc2)C1` (stereo partly drawn) showed a pIC50 of 6.06.

`CCOC(=O)CCCOc1cc(Cc2cnc(N)nc2N)cc(OC)c1OC` showed a pIC50 of 6.62.

For `Cc1cccc2c(C3CCN(CC4CCC(NC(=O)/C=C/c5ccc(Cl)c(Cl)c5)CC4)CC3)c[nH]c12` (stereo not drawn), the negative logarithm of the IC50 (pIC50) was 5.99.

In turn, `CN(C(=O)Cc1ccc(Cl)c(Cl)c1)C1CCN(CCCCCNC(=O)/C=C/c2ccc(Cl)c(Cl)c2)CC1` had a pIC50 of 6.13.

Regarding `COc1ccccc1C1CN(CCNC(=O)c2ncc(C)[nH]2)Cc2ccccc2O1` (stereo not drawn), the pIC50 is 6.10.

Regarding `Cc1ccc(S(=O)(=O)N(CCCNCc2cccc(O)c2)c2ccccc2)cc1`, the pIC50 was 6.11.

`Cc1[nH]c(C)c(-c2ccc(C#Cc3ccc(F)cc3F)cc2)c(=O)c1Br` showed a pIC50 of 7.52.

`CN(c1cc(NC(=O)c2ccc(F)cc2)ccn1)C1CCN(Cc2cccc(O)c2)CC1`: the pIC50 is 6.04.

Take `CC(C)[C@H](NC(=O)c1ccc(O)c(-c2ccc(Cl)c(Cl)c2)c1)C(=O)NCCN1CCOCC1`: the pIC50 is 6.04.

For `NC1=NC(c2ccccc2)N(c2ccc(Cl)c(Cl)c2)C(N)=N1` (stereo not drawn), the pIC50 was 8.00.

With `CC1(C)N=C(N)N=C(N)C1c1ccc(Cl)c(Cl)c1` (stereo not drawn), the pIC50 is 7.52.

Take `Cc1[nH]c2ccccc2c1C1=CCN(CCCCCNC(=O)/C=C/c2ccc(Cl)c(Cl)c2)CC1`: the negative-log IC50 (pIC50) was 6.57.

In turn, `Cc1cc(OCC2CCN(c3ccc(C(=O)NC4CC4)cn3)CC2)ccc1F` showed a pIC50 of 6.06.

The compound `Cn1cnc(CCNC(=O)c2ccc(-c3cccc(-c4nc5ccc(C(F)(F)F)cc5[nH]4)c3)cc2)c1` showed a pIC50 of 6.14.

The compound `Clc1ccc2c(NN=Cc3cccnc3)ccnc2c1` showed a pIC50 of 6.15.

In the case of `CC(C)COc1ccc(Cl)cc1Cc1ccc(-c2nc3ccc(F)cc3[nH]2)o1`, the pIC50 is 6.07.

In turn, `CCN(CC)CCNc1ccnc2[nH]c3ccc([N+](=O)[O-])cc3c12` had a pIC50 of 6.70.

In the case of `COc1cc(Cc2cnc3nc(N)nc(N)c3c2C)cc(OC)c1OC`, the pIC50 was 7.22.

The compound `CC(=O)Nc1nc(C)c(-c2csc(Nc3ccc(Cl)cc3)n2)s1` gave a pIC50 of 6.59.

Source of the values: PubChem BioAssay AID2305 (GlaxoSmithKline (GSK), 2010).
